Data on two molecules can be found in patent US20100197635A1, “TREATMENT OF TARDIVE DYSKINESIA WITH PYRIDOXAL 5'-PHOSPHATE” (Medicure International Inc., priority 2007, published 2010).

Like-named read-outs stand apart in the source and are kept apart here.

Data set [1] has as its system Tardive Dyskinesia. Nature of the data set: Double blind, placebo controlled crossover study of P5P in tardive dyskinesia (Extrapyramidal Symptom Rating Scale). Type of data set: in vivo, patients. How it is done: A double blind, placebo controlled crossover study is conducted among patients with TD induced by the use of a neuroleptic medication. Patients are divided into 5 groups: control, Vitamin B6 treatment (400 mg), low dose of P5P (100 mg), medium dose of P5P (250 mg), and high dose of P5P (750 mg). All dosages are administered orally. Treatments are given daily.

Data set [2] in a line: Phase I single ascending dose study, safety and tolerance of P5P enteric-coated tablet. The format is in vivo, healthy subjects. How it is done: (§1) A Phase I, single center, single-dose, open-label, sequential ascending dose study to evaluate the safety and tolerance of pyridoxal-5′-phosphate, in an enteric-coated tablet, following a single dose of 250 mg, 750 mg, 1000 mg, and 4000 mg in healthy subjects under fasting conditions was conducted.
(§2) A total of 32 healthy, adult subjects signed the study-specific Informed Consent Form and were confined in the clinical study unit; of these subjects, 24 (6 subjects in each dose level; 3 males and 3 females) were dosed and were enrolled in the study; all of these enrolled subjects completed the study. Subjects were confined to the SFBC Anapharm Clinical Research Facility from at least 12 hours prior to drug administration until after the 24.0-hour post-dose blood draw.
Subjects enrolled in this study were members of the community at large. […] All participating subjects were judged eligible for the study when assessed against the inclusion and exclusion criteria. […]

The subject of data set [3] is P2 purinoceptors. As to conditions: cited from earlier work.
Data set [4] can be described thus: Phase I single ascending dose study, pharmacokinetics of P5P enteric-coated tablet. Type of data set: in vivo, healthy subjects. The settings on record: both sexes, human, fasting; for Cmax / Tmax / half-life: plasma, baseline-corrected; for AUC(0-t): baseline-corrected plasma P5P. How it is done:
as §1, §2
Subjects were administered a single oral dose of study medication, as a 1×250 mg (Cohort 1), 3×250 mg (Cohort 2; total dose of 750 mg), 4×250 mg (Cohort 3; total dose of 1000 mg), or 16×250 mg (Cohort 4; total dose of 4000 mg) enteric-coated tablets.
After a supervised overnight fast of at least 10 hours, subjects were administered the medication as a single oral dose of 1, 3, 4, or 16 enteric-coated tablets containing 250 mg of P5P (total dose of 250mg, 750 mg, 1000 mg, or 4000 mg), with 300 mL of water. Subjects were dosed as specified in the protocol, and subsequently fasted for at least 4 hours.
The pharmacokinetic parameters to determine bioavailability for this study were: area under the concentration-time curve from time zero to time of last non-zero concentration (AUC0-t), maximum observed concentration (Cmax), time of observed Cmax (Tmax) and elimination half-life (equivalent to t1/2).

For data set [5] the following is noted: unlikely to pose risks of adverse health effects in healthy people; cited from earlier work.
Data set [6] deals with Tardive Dyskinesia. The settings on record: 100-400 mg vitamin B6 per day, TD induced by schizophrenia medication; cited from earlier work.

As a reminder, the Cmax is the maximum level reached in the sampled fluid or tissue. As a reminder, the Tmax is the time from dosing to the highest level. The term half-life denotes how long it takes for the measured level to halve. Higher therefore signals slow loss. For orientation: AUC(0-t) means exposure summed from dosing to a finite time, without extrapolation to infinity. Read a high AUC(0-t) as more exposure. For the molecule `Cc1ncc(COP(=O)(O)O)c(C=O)c1O` [P5P, 3-hydroxy-2-methyl-5-[(phosphonooxy)methyl]-4-pyridine-carboxaldehyde], the “Extrapyramidal Symptom Rating Scale scores, medium or high dose compared to low dose group” value in data set [1] (P5P 250 mg or 750 mg vs 100 mg, orally daily) is reported as “significantly improved scores”. In data set [1] (P5P 250 mg vs 750 mg, orally daily), the “Extrapyramidal Symptom Rating Scale scores, medium dose compared to high dose” value was “do not exhibit significantly different scores”. Further, the “scores on the subscales of the Extrapyramidal Symptom Rating Scale (parkinsonism and dyskinetic movement scales)” value in data set [1] (P5P 100, 250 or 750 mg orally daily, compared to control or vitamin B6 (400 mg) groups) was “improved scores”. Also, the tolerability result in data set [2] (dosages up to 4000 mg) is given as “well tolerated”. Besides, in data set [2] (single oral doses 250, 750, 1000, 4000 mg), the “side effects or evidence of toxicity” value was “none of the patients presented any significant side effects or evidence of toxicity”. Moreover, in data set [3], the “ATP induced calcium ion influx into cells” value is on record as “inhibits”. Moreover, the Cmax in data set [4] (single oral dose 250 mg) stood at 300 ± 200 ng/mL; in data set [4] (single oral dose 750 mg), 3900 ± 5400 ng/mL; in data set [4] (single oral dose 1000 mg), 1500 ± 2300 ng/mL; in data set [4] (single oral dose 4000 mg), 1700 ± 2700 ng/mL. Also, the Tmax in data set [4] (single oral dose 250 mg) turned out to be 3.2 ± 1.3 h; in data set [4] (single oral dose 750 mg), 2.8 ± 0.9 h; in data set [4] (single oral dose 1000 mg) it was 2.9 ± 1.4 h; in data set [4] (single oral dose 4000 mg), 4.7 ± 3.5 h. Besides, the half-life in data set [4] (single oral dose 250 mg) is 53.8 ± 41.9 h; in data set [4] (single oral dose 750 mg) it was 27.9 ± 19.5 h; in data set [4] (single oral dose 1000 mg) it was 36.2 ± 30.6 h; in data set [4] (single oral dose 4000 mg) it was 16.5 ± 16.5 h. In addition, the AUC(0-t) in data set [4] (single oral dose 250 mg) is 2600 ± 1300 ng·h/mL; in data set [4] (single oral dose 750 mg), 12800 ± 15400 ng·h/mL; in data set [4] (single oral dose 1000 mg) it was 5900 ± 7700 ng·h/mL; in data set [4] (single oral dose 4000 mg), 6900 ± 7400 ng·h/mL.
Consider `Cc1ncc(CO)c(CO)c1O` [vitamin B6, pyridoxine], for which, in data set [5], the “Tolerable Upper Intake Level” value was 100 mg. Besides, the “scores on the subscales of the Extrapyramidal Symptom Rating Scale (parkinsonism and dyskinetic movement scales)” value in data set [6] is recorded as “improved scores”.
